{
  "source": "paper PMC5207065",
  "about": "“The Ribosome Restrains Molten Globule Formation in Stalled Nascent Flavodoxin” (The Journal of Biological Chemistry, 2016)",
  "test_in_all_cases": "FMN fluorescence quenching on binding to apoprotein, time trace",
  "key": {"[1]": {"target": "T1, flavodoxin (C69A apoflavodoxin; F44Y apoflavodoxin) (Azotobacter vinelandii, UniProt P00324, C70A)", "T1 construct": "gene nifF; full-length isolated apoflavodoxin, 179 residues, expressed in E. coli TG2; FMN removed", "T1 sequence (P00324 2-180 C70A)": "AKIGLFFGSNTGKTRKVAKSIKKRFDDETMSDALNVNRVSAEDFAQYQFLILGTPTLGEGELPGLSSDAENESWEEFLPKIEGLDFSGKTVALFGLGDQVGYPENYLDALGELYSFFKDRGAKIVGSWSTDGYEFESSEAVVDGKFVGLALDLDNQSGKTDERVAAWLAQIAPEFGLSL", "conditions": "10 or 100 mM potassium PPi, pH 6.0, 25 °C; 140 nM protein, 25 nM FMN"}, "[2]": {"target": "T2, apo-F44YP (released F44Y flavodoxin construct) (Azotobacter vinelandii, UniProt P00324, F45Y/C70A)", "T2 construct": "gene nifF; tags kept", "T2 sequence (P00324 2-180 F45Y/C70A)": "as the sequence (P00324 2-180 C70A) above, with F44Y counted along it", "conditions": "100 mM potassium PPi, 25 °C; refolded apo-F44YP 147 nM, 25 nM FMN"}, "[3]": {"target": "T3, F44YRNC (ribosome-nascent chain complex of F44Y flavodoxin) (Azotobacter vinelandii, UniProt P00324, F45Y/C70A)", "T3 construct": "gene nifF; fusion: triple StrepII tag, Smt3, flavodoxin, TEV site, linker, SecM; stalled on E. coli ribosome, made in vitro with PURExpress, Strep-Tactin purified; tags kept", "T3 sequence (P00324 2-180 F45Y/C70A, one chain of several)": "as the sequence (P00324 2-180 C70A) above, with F44Y counted along it", "conditions": "buffer I (HEPES-KOH, magnesium acetate), pH 7.4, 25 °C; 50 nM RNC, 25 nM FMN; stalled on ribosome"}},
  "data": [
    {"smiles": "Cc1cc2nc3c(=O)[nH]c(=O)nc-3n(C[C@H](O)[C@H](O)[C@H](O)COP(=O)(O)O)c2cc1C", "note": "[FMN]", "values": [
      {"measurement": "FMN fluorescence quenching on binding to apoprotein, time trace", "setting": "[1]", "value": "time-dependent decrease of FMN fluorescence upon cofactor binding to C69A apoflavodoxin"},
      {"measurement": "FMN fluorescence quenching on binding to apoprotein, time trace", "setting": "[2]", "value": "the FMN binding trace of this refolded apo-F44YP was measured in various buffers"},
      {"measurement": "FMN fluorescence quenching on binding to apoprotein, time trace", "setting": "[3]", "value": "F44YRNC binds FMN rapidly at both salt concentrations"}
    ]}
  ]
}
